Assay results: ChEMBL document CHEMBL3885881, “DrugMatrix”

Species: Rattus norvegicus
Test: DrugMatrix - Regimen: Daily Repeat
Assay type: toxicity, organism-based, Sprague-Dawley
Parameters: regimen Daily Repeat, gender Male, age 6-8 weeks
Conditions: in vivo, po, route oral GAVAGE, […]; for ABSOLUTE BASOPHIL / ABSOLUTE EOSINOPHIL / ABSOLUTE LYMPHOCYTE / ABSOLUTE MONOCYTE / ABSOLUTE SEGMENTED NEUTROPHIL / BASOPHIL / EOSINOPHIL / ERYTHROCYTE COUNT / HEMATOCRIT / HEMOGLOBIN / LEUKOCYTE COUNT / LYMPHOCYTE / MEAN CORPUSCULAR HEMOGLOBIN / MEAN CORPUSCULAR VOLUME / MONOCYTE / NEUTROPHIL / NUCLEATED RED BLOOD CELLS / PLATELET COUNT: tissue Blood; for ALANINE AMINOTRANSFERASE / ALBUMIN / ALKALINE PHOSPHATASE / ASPARTATE AMINOTRANSFERASE / BLOOD UREA NITROGEN / CARBON DIOXIDE / CHLORIDE / CHOLESTEROL / CREATINE PHOSPHOKINASE / CREATININE / GLUCOSE / LACTATE DEHYDROGENASE / LIPASE / PHOSPHORUS / POTASSIUM / SODIUM / TOTAL BILIRUBIN / TOTAL PROTEIN / URIC ACID: tissue Plasma
[1] = 70 mg/kg, 120 h, dose level M1, time 5 day
[2] = 700 mg/kg, 72 h, dose level High, time 3 day
[3] = 700 mg/kg, 120 h, dose level High, time 5 day

With CCCCCCCCc1ccc(O)cc1 [4-OCTYLPHENOL] the “ABSOLUTE BASOPHIL” value [1] was 0 CELLS/uL, the “ABSOLUTE EOSINOPHIL” value [1] was 194 CELLS/uL and the “ABSOLUTE LYMPHOCYTE” value [1] was 9540.33 CELLS/uL. For the same compound, the “ABSOLUTE MONOCYTE” value [1] was 80.33 CELLS/uL, the “ABSOLUTE SEGMENTED NEUTROPHIL” value [1] was 918.67 CELLS/uL and the BASOPHIL [1] was 0%. For the same compound, the EOSINOPHIL [1] was 1.67%, the “ERYTHROCYTE COUNT” value [1] was 5.98 x10E6/uL and the HEMATOCRIT [1] was 36.37%. For the same compound, the HEMOGLOBIN [1] was 13.77 G/DL, the “LEUKOCYTE COUNT” value [1] was 10.73 x10E3/uL and the LYMPHOCYTE [1] was 88.67%. The “MEAN CORPUSCULAR HEMOGLOBIN” value [1] was 23.03 pg, the “MEAN CORPUSCULAR VOLUME” value [1] was 60.9 fL and the MONOCYTE [1] was 0.67%. For the same compound, the NEUTROPHIL [1] was 9%, the “NUCLEATED RED BLOOD CELLS” value [1] was 0.33 /100WBC and the “PLATELET COUNT” value [1] was 1062 x10E3/uL. The “ALANINE AMINOTRANSFERASE” value [1] was 72 u/L, the ALBUMIN [1] was 4.1 G/DL and the “ALKALINE PHOSPHATASE” value [1] was 380.67 u/L. For the same compound, the “ASPARTATE AMINOTRANSFERASE” value [1] was 88.67 u/L, the “BLOOD UREA NITROGEN” value [1] was 16.67 mg/dL and the “CARBON DIOXIDE” value [1] was 27 mmol/L. For the same compound, the CHLORIDE [1] was 102.33 MEQ/L, the CHOLESTEROL [1] was 57.67 mg/dL and the “CREATINE PHOSPHOKINASE” value [1] was 355.33 u/L. The CREATININE [1] was 0.18 mg/dL, the GLUCOSE [1] was 157.33 mg/dL and the “LACTATE DEHYDROGENASE” value [1] was 260.67 u/L. The LIPASE [1] was 11.67 u/L, the PHOSPHORUS [1] was 11.13 mg/dL and the POTASSIUM [1] was 5.91 MEQ/L. For the same compound, the SODIUM [1] was 142.87 MEQ/L, the “TOTAL BILIRUBIN” value [1] was 0.17 mg/dL and the “TOTAL PROTEIN” value [1] was 5.87 G/DL. For the same compound, the “URIC ACID” value [1] was 1.6 mg/dL, the “ABSOLUTE BASOPHIL” value [2] was 0 CELLS/uL and the “ABSOLUTE EOSINOPHIL” value [2] was 0 CELLS/uL. For the same compound, the “ABSOLUTE LYMPHOCYTE” value [2] was 8011 CELLS/uL, the “ABSOLUTE MONOCYTE” value [2] was 200 CELLS/uL and the “ABSOLUTE SEGMENTED NEUTROPHIL” value [2] was 2522.33 CELLS/uL. The BASOPHIL [2] was 0%, the EOSINOPHIL [2] was 0% and the “ERYTHROCYTE COUNT” value [2] was 6.31 x10E6/uL. For the same compound, the HEMATOCRIT [2] was 38.63%, the HEMOGLOBIN [2] was 14.83 G/DL and the “LEUKOCYTE COUNT” value [2] was 10.73 x10E3/uL. The LYMPHOCYTE [2] was 73.33%, the “MEAN CORPUSCULAR HEMOGLOBIN” value [2] was 23.5 pg and the “MEAN CORPUSCULAR VOLUME” value [2] was 61.27 fL. For the same compound, the MONOCYTE [2] was 2%, the NEUTROPHIL [2] was 24.67% and the “NUCLEATED RED BLOOD CELLS” value [2] was 0.67 /100WBC. For the same compound, the “PLATELET COUNT” value [2] was 1294.33 x10E3/uL, the “ALANINE AMINOTRANSFERASE” value [2] was 165.67 u/L and the ALBUMIN [2] was 3.93 G/DL. For the same compound, the “ALKALINE PHOSPHATASE” value [2] was 493 u/L, the “ASPARTATE AMINOTRANSFERASE” value [2] was 140.33 u/L and the “BLOOD UREA NITROGEN” value [2] was 33.33 mg/dL. For the same compound, the “CARBON DIOXIDE” value [2] was 26.67 mmol/L, the CHLORIDE [2] was 97.67 MEQ/L and the CHOLESTEROL [2] was 169.67 mg/dL. For the same compound, the “CREATINE PHOSPHOKINASE” value [2] was 748 u/L, the CREATININE [2] was 0.58 mg/dL and the GLUCOSE [2] was 147.33 mg/dL. For the same compound, the “LACTATE DEHYDROGENASE” value [2] was 302.33 u/L, the LIPASE [2] was 10.33 u/L and the PHOSPHORUS [2] was 12.5 mg/dL. For the same compound, the POTASSIUM [2] was 5.29 MEQ/L, the SODIUM [2] was 140.03 MEQ/L and the “TOTAL BILIRUBIN” value [2] was 0.9 mg/dL. For the same compound, the “TOTAL PROTEIN” value [2] was 6.17 G/DL, the “URIC ACID” value [2] was 1.03 mg/dL and the “ABSOLUTE BASOPHIL” value [3] was 0 CELLS/uL. For the same compound, the “ABSOLUTE EOSINOPHIL” value [3] was 0 CELLS/uL, the “ABSOLUTE LYMPHOCYTE” value [3] was 7185 CELLS/uL and the “ABSOLUTE MONOCYTE” value [3] was 222.33 CELLS/uL. For the same compound, the “ABSOLUTE SEGMENTED NEUTROPHIL” value [3] was 759.33 CELLS/uL, the BASOPHIL [3] was 0% and the EOSINOPHIL [3] was 0%. For the same compound, the “ERYTHROCYTE COUNT” value [3] was 7.06 x10E6/uL, the HEMATOCRIT [3] was 42.33% and the HEMOGLOBIN [3] was 15.83 G/DL. The “LEUKOCYTE COUNT” value [3] was 8.17 x10E3/uL, the LYMPHOCYTE [3] was 85% and the “MEAN CORPUSCULAR HEMOGLOBIN” value [3] was 22.53 pg. The “MEAN CORPUSCULAR VOLUME” value [3] was 60.13 fL, the MONOCYTE [3] was 3.33% and the NEUTROPHIL [3] was 11.67%. For the same compound, the “NUCLEATED RED BLOOD CELLS” value [3] was 0 /100WBC, the “PLATELET COUNT” value [3] was 1069.33 x10E3/uL and the “ALANINE AMINOTRANSFERASE” value [3] was 175.67 u/L. For the same compound, the ALBUMIN [3] was 4.03 G/DL, the “ALKALINE PHOSPHATASE” value [3] was 554.67 u/L and the “ASPARTATE AMINOTRANSFERASE” value [3] was 104 u/L. For the same compound, the “BLOOD UREA NITROGEN” value [3] was 17 mg/dL, the “CARBON DIOXIDE” value [3] was 27.67 mmol/L and the CHLORIDE [3] was 100 MEQ/L. The CHOLESTEROL [3] was 150.33 mg/dL, the “CREATINE PHOSPHOKINASE” value [3] was 369 u/L and the CREATININE [3] was 0.37 mg/dL. The GLUCOSE [3] was 133 mg/dL, the “LACTATE DEHYDROGENASE” value [3] was 179.33 u/L and the LIPASE [3] was 10.67 u/L. For the same compound, the PHOSPHORUS [3] was 11.13 mg/dL, the POTASSIUM [3] was 6.27 MEQ/L and the SODIUM [3] was 143.2 MEQ/L. For the same compound, the “TOTAL BILIRUBIN” value [3] was 0.3 mg/dL, the “TOTAL PROTEIN” value [3] was 6.37 G/DL and the “URIC ACID” value [3] was 1.23 mg/dL.
